Results as given in the supplement of paper PMC13380429.

How the values were obtained:
Details in all cases: 72 h
[1] = system: U2OS; assay: cell viability relative to DMSO; higher = less toxic
[2] = system: Vero E6; assay: as above
[3] = system: Calu-3; assay: as above
[4] = system: Caco-2; assay: as above
[5] = system: HepG2; assay: as above
[6] = system: U2OS; assay: drug sensitivity score (DSS) for viability; higher = more toxic; extreme values may be limits of the assay
[7] = system: Vero E6; assay: as above
[8] = system: Calu-3; assay: as above
[9] = system: Caco-2; assay: as above
[10] = system: HepG2; assay: as above
[11] = system: U2OS; assay: relative viability EC50 (midpoint between 100% and the lowest measured viability); higher = less toxic
[12] = system: Vero E6; assay: as above
[13] = system: Calu-3; assay: as above
[14] = system: Caco-2; assay: as above
[15] = system: HepG2; assay: as above

Row | SMILES | cell viability ([1]; 1 nM) | cell viability ([1]; 10 nM) | cell viability ([1]; 100 nM) | cell viability ([1]; 1000 nM) | cell viability ([1]; 10000 nM) | cell viability ([2]; 1 nM) | cell viability ([2]; 10 nM) | cell viability ([2]; 100 nM) | cell viability ([2]; 1000 nM) | cell viability ([2]; 10000 nM) | cell viability ([3]; 1 nM) | cell viability ([3]; 10 nM) | cell viability ([3]; 100 nM) | cell viability ([3]; 1000 nM) | cell viability ([3]; 10000 nM) | cell viability ([4]; 1 nM) | cell viability ([4]; 10 nM) | cell viability ([4]; 100 nM) | cell viability ([4]; 1000 nM) | cell viability ([4]; 10000 nM) | cell viability ([5]; 1 nM) | cell viability ([5]; 10 nM) | cell viability ([5]; 100 nM) | cell viability ([5]; 1000 nM) | cell viability ([5]; 10000 nM) | drug sensitivity score [6] | drug sensitivity score [7] | drug sensitivity score [8] | drug sensitivity score [9] | drug sensitivity score [10] | relative viability EC50 [11] | relative viability EC50 [12] | relative viability EC50 [13] | relative viability EC50 [14] | relative viability EC50 [15]
1 | CC(=O)CC(c1ccccc1)c1c(O)c2ccccc2oc1=O (stereo not given) [warfarin] | 96% | 97.2% | 98.3% | 102% | 94.9% | 101% | 96.9% | 105% | 103% | 97.1% | 100% | 91.9% | 104% | 97.8% | 115% | 98% | 108% | 101% | 95.1% | 99.7% | 100% | 85.7% | 94.8% | 98.5% | 107% | 0 | 0 | 0 | 0 | 0 | > 10 µM | > 10 µM | > 10 µM | > 10 µM | > 10 µM
2 | Cc1cc(-c2ccc(CC(=O)Nc3ccc(-c4cccnc4)cc3)cc2)ccn1 [wnt-c59] | 93.9% | 93.6% | 94.8% | 92.9% | 91.3% | 97.1% | 101% | 100% | 99.5% | 102% | 106% | 106% | 101% | 98% | 83.6% | 104% | 94.8% | 109% | 96.1% | 85% | 96.3% | 110% | 94.5% | 103% | 81.8% | 0 | 0 | 0.5 | 0.6 | 0.3 | > 10 µM | > 10 µM | > 10 µM | > 10 µM | > 10 µM
